Experimental findings from ChEMBL document CHEMBL1152117, “A versatile synthesis of 2-methoxyestradiol, an endogenous metabolite of estradiol which inhibits tubulin polymerization by binding to the colchicine binding site” (Bioorg Med Chem Lett, 1994) are described below.

For test [1], the system named is Mus musculus. The test can be described thus: In vivo inhibition of growth of solid tumors when administered orally in mice; Active. It is filed as functional, organism-based.
For test [2], the system named is Mus musculus. As to the kind of experiment: In vivo inhibition of neovascularization of solid tumors when administered orally in mice; Active. It counts as functional, organism-based.

Each structure is given as a SMILES string. Active and inactive are the calls of the source. The calls are words filed in the database; no cut-off is given here.

Take `COc1cc2c(cc1O)CC[C@@H]1[C@@H]2CC[C@]2(C)[C@@H](O)CC[C@@H]12`: the result in test [1] and in test [2] was Active.
